The values below come from US5607967A, “Treatment of alzheimer's disease with 5-(tetradecyloxy)-2-furan carboxylic acid” (Merck & Co., Inc., priority 1994, dated 1997).

In experiment [1] the target is T1, native mouse glucocorticoid receptor (Mus musculus, UniProt P06537).
T1 sequence (P06537 1-792): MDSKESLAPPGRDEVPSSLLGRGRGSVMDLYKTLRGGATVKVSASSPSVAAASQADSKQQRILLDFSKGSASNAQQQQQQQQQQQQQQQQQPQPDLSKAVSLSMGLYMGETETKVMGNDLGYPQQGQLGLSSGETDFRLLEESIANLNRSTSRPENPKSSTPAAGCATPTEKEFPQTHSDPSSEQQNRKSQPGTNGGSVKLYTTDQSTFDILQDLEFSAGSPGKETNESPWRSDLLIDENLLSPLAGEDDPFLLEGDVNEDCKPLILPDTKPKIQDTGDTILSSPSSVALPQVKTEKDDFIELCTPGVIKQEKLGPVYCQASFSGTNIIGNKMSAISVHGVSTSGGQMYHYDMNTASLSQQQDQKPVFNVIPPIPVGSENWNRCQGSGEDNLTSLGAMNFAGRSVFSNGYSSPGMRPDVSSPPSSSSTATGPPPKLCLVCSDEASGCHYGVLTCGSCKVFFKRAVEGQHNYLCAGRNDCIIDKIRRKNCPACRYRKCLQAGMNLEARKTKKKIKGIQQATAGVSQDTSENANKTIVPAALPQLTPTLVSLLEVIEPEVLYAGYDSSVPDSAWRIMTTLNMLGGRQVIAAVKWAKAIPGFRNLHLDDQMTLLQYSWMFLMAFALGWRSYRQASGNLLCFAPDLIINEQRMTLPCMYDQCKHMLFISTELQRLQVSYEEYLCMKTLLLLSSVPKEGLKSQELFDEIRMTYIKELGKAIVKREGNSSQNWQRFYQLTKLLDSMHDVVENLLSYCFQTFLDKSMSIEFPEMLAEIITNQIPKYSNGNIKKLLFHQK
Kind of experiment: Transcription assay, native glucocorticoid receptor co-transfected with MMTV-luciferase reporter. On the technique in general: Reporter assays use an easily measured gene product as a stand-in for the process of interest.
Experimental: The reporter gene was the plasmid pJA358 in which the expression of firefly luciferase is regulated by two tandem repeats of the glucocorticoid hormone response element (GRE) linked to the MMTV promoter (Boie et al., 1993).
Transient transfection of COS and CV1 cells was performed as described (Schmidt 1992). Cells were plated (1.5×10^5 in 1 mL) into 12 well dishes in phenol red-free medium supplemented with activated charcoal treated fetal calf serum. The next day 0.12 mL of DNA 10 μg/ml (5 μg receptor DNA and 5 μg reporter plasmid), as a calcium phosphate precipitate, was added to the cells. Ligands were added to the cells 30 minutes after transfection. The next day (18 hours), the cells were washed and fresh ligands added. Twenty-four hours later, cell extracts were prepared and assayed for luciferase enzyme activity using the luciferase assay system (Promega Madison, Wis.). Each transfection was performed in triplicate and the luciferase activity of each sample measured in duplicate using the AutoClinilumat (Berthold Nashua, N.H.).
The transfected cells were treated with TOFA at 2 μM, 10 μM, 20 μM, and 50 μM and oleic acid at 50 μM, and 300 μM.

Experiment [2] deals with T2, GR/PPAR chimeric receptor (Mus musculus, UniProt P23204).
T2 construct: COS cells, MMTV-luciferase
T2 sequence (P23204 1-468): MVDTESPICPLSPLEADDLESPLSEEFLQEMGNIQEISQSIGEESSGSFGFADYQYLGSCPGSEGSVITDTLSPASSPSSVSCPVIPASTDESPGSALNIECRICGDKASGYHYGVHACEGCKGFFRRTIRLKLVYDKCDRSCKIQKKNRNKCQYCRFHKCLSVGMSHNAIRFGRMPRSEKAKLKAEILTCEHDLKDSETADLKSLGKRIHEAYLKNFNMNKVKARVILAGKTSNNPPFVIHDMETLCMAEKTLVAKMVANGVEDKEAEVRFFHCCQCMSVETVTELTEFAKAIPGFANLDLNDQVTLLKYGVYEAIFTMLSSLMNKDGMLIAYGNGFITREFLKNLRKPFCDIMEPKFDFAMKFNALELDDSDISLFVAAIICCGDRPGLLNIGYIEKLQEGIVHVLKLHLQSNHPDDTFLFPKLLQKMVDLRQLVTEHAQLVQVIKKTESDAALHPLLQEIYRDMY
T2 sequence (P06537 1-792 partner): T1 sequence (P06537 1-792)
Kind of experiment: Ligand dependent transcription assay, GR/PPAR chimeric receptor with MMTV-luciferase reporter. It is filed as cell-based. The protocol:
Similar hybrid receptors GR/NER, GR/NUC and GR/PPAR, in identical expression plasmid backgrounds were prepared essentially as described for the construction of the GR/mPPAR and GR/NUC chimeric receptors in Schmidt et al., "Identification of a new member of the steroid hormone receptor superfamily that is activated by a peroxisome proliferator and fatty acids," Mol. Endocrinol., 6(10):1634-41, 1992, and in Boie et al., "Enantioselective activation of the peroxisome proliferator-activated receptor", J. Biol. Chem. 268(8):5530-4, 1993.
Briefly, the amino terminal portion of the mouse glucocorticoid receptor (mGR), that includes the DNA binding domain was fused to the putative ligand binding domains of the nuclear receptor NER, hNUC-I (Schmidt et al., 1992), mPPAR (Issenmann and Green, 1990) to form the respective chimeric receptors GR/NER, GR/NUC and GR/PPAR. The GR/NER chimeric receptor was constructed as described for the GR/NUC and GR/PPAR hybrid receptors (Schmidt et al., 1992; Boie et al). The cDNA sequences coding for amino acids Arg^155 and Glu^156 of the NER receptor were converted to the Xho I restriction site, that was later used for the ligation to the GR cDNA sequences that coded for the DNA binding domain. Thus, converting amino acid residues Arg^155 and Glu^156 of NER receptor to amino acid residues Ser^155 and His^156.
The ligand transcription assay mediated by GR/PPAR in COS cells was performed as described in Example 4. The cells were treated with TOFA and Cerulenin at 0.1, 1, 10 and 100 μM.

Experiment [3] concerns the target T2, GR/PPAR chimeric receptor. The experiment is described as above. In kind it is cell-based. Conditions: read-out: Fold of stimulation GR/PPAR.
Where [4] appears, read: read-out: Fold of stimulation GR.
Setting [5] is: COS, read-out: Fold of stimulation GR/PPAR.

Where two headings read alike, the source gives them in different places.

For the compound `CCCCCCCCCCCCCCOc1ccc(C(=O)O)o1` [TOFA, 5-(tetradecyloxy)-2-furan carboxylic acid], in experiment [1], the “Expression of MMTV-luciferase reporter after co-transfection of native glucocorticoid receptor” value is “did not stimulate expression”. In experiment [1] (setting [4]), the fold induction at 2 µM came to 1.02 ± 0.4, the fold induction at 10 µM worked out at 0.8 ± 0.14 and the fold induction at 50 µM was found to be 0.91 ± 0.3. Moreover, the “Expression mediated by GR/PPAR” value in experiment [2] is listed as “stimulated expression”. For the same compound, in experiment [2] (setting [5]), the fold induction at 0.1 µM was 1.04 ± 0.14, the fold induction at 1 µM was 2.38 ± 0.16, the fold induction at 10 µM worked out at 4.43 ± 0.23 and the fold induction at 100 µM was determined as 4.1 ± 0.52. Also, in experiment [2] (read-out: Fold of stimulation GR/PPAR), the fold induction at 10 µM came to 4.08 ± 0.1. Moreover, in experiment [3], the fold induction at 2 µM is 2.89 ± 0.13 and the fold induction at 20 µM came out at 5.75 ± 0.14.
